# Laboratory results reported in patent US20040242974A1, “Treatment of refractory depression with an opiate antagonist and an antidepressant” (priority 2001, published 2004).
# Values joined by “and” are separate entries in the source; they are usually repeats but may differ in a detail not shown here. Equal entries are not always repeated.
# Assays:
# depression = test: Clinical observation / patient report of response to medication (case reports); type: in vivo, human; settings: A person; for Response to antidepressants in the past: earlier episodes of unipolar depression, recurrent type
# Experimental: Both antidepressants were stopped and they were then administered desipramine (a tricyclic antidepressant) up to 150 mg./day for 4 weeks. […] Desipramine was discontinued and a person was started on a course of electric shock treatment (ECT) on an outpatient basis. They received a total number of 8 treatments, administered 2 times per week.
# (§1) Mrs. […] Lithium carbonate 300 mg. b.i.d. was added to the Prozac for one week, and afterward Prozac was increased over the next 4 weeks to 60 mg./day. […] In succession, they were tried on amitriptyline up to 300 mg./day with monitoring of medication blood levels, and venlafaxine up to 375 mg./day.
# [1] = A person; lithium carbonate 300 mg b.i.d.
# Experimental: as §1
# [2] = system: refractory depression characterized by dissociation; test: Glover Numbing Scale (GNS) self-report questionnaire measuring numbness/dissociation in the treated patient; type: in vivo, human
# From the text: The Glover Numbing Scale was constructed to measure symptoms associated with the numb responses, and provides an adequate measure for determining whether a patient is in a dissociated state. Both males and females with major depression evidenced a bimodal distribution of scores on the GNS with a distance of three standard deviations between their respective means. The GNS has identified a unique subgroup within the population of people diagnosed with major depression who manifest the unique phenomenological experience and associated symptoms of having no feelings. […] By evaluating a patient with the Glover Numbing Scale prior to administration of an opiate antagonist, and reassessing the patient after treatment, one of skill in the art can readily determine if the opiate antagonist is reversing or alleviating dissociation.
# In one embodiment, the Glover Numbing Scale is a 35-item self-report questionnaire that systematically measures the frequency of experiences associated with “numbness,” an essential symptom of dissociation. Each item is rated on a seven-point scale by the patient, with scores corresponding to the following responses: 1, never; 2, very rarely; 3, rarely; 4, occasionally; 5, frequently, 6, very frequently; and 7, always. The highest possible score according to the Glover Numbing Scale is 245 (35 items by 7 points per item); a higher score indicates a more persistent degree of numbness and associated symptoms of dissociation. […] See S. Ramirez, supra at 194-95. According to the present invention, a Glover Numbing Scale score greater than about 100 should be considered consistent with the presence of dissociation. […] In another embodiment, a GNS score less than about 60 can be considered clinically non-significant.
# That is, according to one embodiment of the present invention, a patient evaluated according to the Beck Depression Inventory to have a total BDI of about 10 or more, would be diagnosed as suffering from depression. According to the present invention, the depressed patient would then be evaluated according to the Glover Numbing Scale to assess the refractory nature of the patient's depression. If the patient scored about 100 or above, and positively to any of the eight salient items on the GNS, the patient is then affirmatively diagnosed as suffering from refractory depression characterized by dissociation according to one embodiment of the present invention. According to the present invention, the diagnosis may be made immediately after evaluating the patient according to the Glover Numbing Scale in conjunction with the Beck Depression Inventory in the context of an initial diagnostic assessment. The 35 items of the Glover Numbing Scale (GNS) describe the breadth of problems that can be associated with dissociation. Eight of the 35 items, however, uniquely discriminate dissociative experiences from symptoms of depression at a very high degree of probability. It is recommended that these eight items be scored separately at the time of the initial evaluation, and be used to monitor the patient's response to treatment at regular intervals until the patient is in full remission or has achieved the maximum beneficial response to medication.
# At the time of remission the patient's responses to all of the other […] items on the GNS can be individually assessed by the clinician to ascertain if any residual symptoms are present which may require further attention. […]
# [3] = system: refractory depression characterized by dissociation; test: Beck Depression Inventory (BDI) questionnaire measuring depression in the treated patient; type: in vivo, human
# From the text: Although any known test for measuring depression may be used as an indicator or measure of depression, the Beck Depression Inventory (“BDI”) is a preferred test for the present invention. The Beck Depression Inventory is a questionnaire developed by Aaron T. Beck, M.D. in 1978 to measure the presence and severity of depression. This test provides an exemplary method of measuring depression over the course of treatment according to the present invention. This test can also be used for reassessing a patient during treatment. The reassessment may be used to determine choice and dosage of antidepressant. The second edition of the Beck Depression Inventory is a 21-item questionnaire with each item rated on a four-point Likert scale (0-3) with total scores ranging from 0 to 63. A higher score indicates a more severe level of depression. Generally, a total score below 10 indicates no depression; a score from 10-16 indicates mild depression; 17-29 indicates moderate depression; and 30-63 indicates severe depression. According to the present invention, a score of about 10 or above would indicate diagnosis and treatment according to the present invention, with the patient more preferably presenting a BDI score of about 17 or above. A BDI score of less than about 10 is clinically non-significant. Eleven items of the BDI specifically identify how a depressed person thinks and feels about himself or herself. […] In paraphrased form they are: feeling disappointment in oneself; critical of oneself; suicidal thoughts; sadness; discouraged about the future; feelings of being punished; guilty; feeling like a failure; feeling a lack of satisfaction; feeling old/unattractive/ugly; and loss of interest in people. See S. Ramirez, supra.
# patient = test: Side effects reported by the patient during treatment; type: in vivo, human; settings: A person; nalmefene 50 to 150 mg b.i.d.
# Experimental: They were reassessed with the BDI and the GNS. One week later a person was able to identify their mood as sad and lonely. […] Their BDI was now scored at 20 and their GNS score fell to 70.
# It was decided to maintain the patient on amitriptyline while introducing nalmefene 50 mg. b.i.d. Four days later the dose of nalmefene was doubled. A person was monitored for side effects and changes of mood, using the eight salient items of the GNS and the eleven salient items of the BDI as guides. Mrs. […] During each visit the dose was […] 50 mg. to a final dose of 200 mg./day. Mrs.
# [4] = lithium carbonate 300 mg b.i.d. added to Prozac, Prozac increased to 60 mg/day over 4 weeks
# [5] = A person, SAM-e 400 mg in divided doses, 800 mg five days later, started after the nalmefene course, one week afterward
smiles,measurement,setting,value
CC(NC(C)(C)C)C(=O)c1cccc(Cl)c1 (stereo not drawn) [Bupropion],Clinical response,"depression; Bupropion (sustain released) up to 300 mg/day added to paxil, other than some improvement in level of energy",little benefit
O=C([O-])[O-].[Li+].[Li+] [Lithium carbonate],Clinical response,depression; [4],lack of response
same,Serum lithium levels,[1],0.6 and 0.7
Fc1ccc([C@@H]2CCNC[C@H]2COc2ccc3c(c2)OCO3)cc1 [Paxil],Clinical response,"depression; Paxil up to 60 mg/day, unsuccessfully administered",mild to moderate calming effect
same,Response to antidepressants in the past,depression,good responses
CNCCC(Oc1ccc(C(F)(F)F)cc1)c1ccccc1 (stereo not drawn) [Prozac],Clinical response,"depression; initial treatment with Prozac, otherwise unchanged",reducing irritability
same,Clinical response,depression; [4],lack of response
C[S+](CC[C@H](N)C(=O)[O-])C[C@H]1O[C@@H](n2cnc3c(N)ncnc32)[C@H](O)[C@@H]1O (stereo partly drawn) [SAM-e],GNS score,[2]; [5],40
same,BDI score,[3]; [5],6
same,Clinical response (mood and energy),"depression; SAM-e 400 then 800 mg, started after the nalmefene course, one week afterward",marked improvement in mood and energy level
CN(C)CCC=C1c2ccccc2CCc2ccccc21 [amitriptyline],Clinical response (antidepressant effect),"depression; amitriptyline maintained while nalmefene introduced (50 mg b.i.d., doubled after four days)",began to feel the antidepressant effect for the first time
same,Clinical response,"depression; amitriptyline up to 300 mg/day, calming effect with some reduction of sadness and emptiness",improved their level of energy
CNCCCN1c2ccccc2CCc2ccccc21 [desipramine],Clinical response,"depression; desipramine up to 150 mg/day for 4 weeks, remained essentially depressed",some decrease of crying spells
same,Response to antidepressants in the past,depression,good responses
C=C1CC[C@@]2(O)[C@H]3Cc4ccc(O)c5c4[C@@]2(CCN3CC2CC2)[C@H]1O5 [nalmefene],GNS score,"[2]; A person (Example 1), nalmefene 50 mg b.i.d. 3 days, 100 mg b.i.d. 4 days, then 150 mg b.i.d., one week later, score before treatment 142",70
same,GNS score,"[2]; A person (Example 2), one week after nalmefene 200 mg b.i.d. reached, maintained on amitriptyline (final 200 mg/day), score before 148",38
same,Salient items of the GNS,"[2]; A person, nalmefene 200 mg b.i.d. with amitriptyline",not to have been experienced
same,Salient items of the GNS,"[2]; A person, nalmefene up to 150 mg b.i.d., during the past week",not have been experienced
same,BDI score,"[3]; A person (Example 1), nalmefene 50 mg b.i.d. 3 days, 100 mg b.i.d. 4 days, then 150 mg b.i.d., one week later, score before treatment 23",20
same,BDI score,"[3]; A person (Example 2), one week after nalmefene 200 mg b.i.d. reached, maintained on amitriptyline (final 200 mg/day), score before 24",5
same,Clinical response (feelings),"depression; nalmefene up to 150 mg b.i.d., one week later",no longer experienced any lack of feelings
same,Clinical response (patient report),"depression; one week after nalmefene 200 mg b.i.d. reached, with amitriptyline",felt their usual self once again
same,Side effects of drowsiness and tiredness,patient,mild and transient
COc1ccc(C(CN(C)C)C2(O)CCCCC2)cc1 (stereo not drawn) [venlafaxine],Clinical response,"depression; venlafaxine up to 375 mg/day, calming effect with some reduction of sadness and emptiness",improved their level of energy
